Laboratory results published in US6784201B2, “Benzothiepines having activity as inhibitors of ileal bile acid transport and taurocholate uptake” (G.D. Searle & Company, priority 1994, dated 2004).

molecular target: T1, human IBAT (Homo sapiens, UniProt Q12908); experiment: In vitro assay of IBAT-mediated uptake of [14C]-taurocholate (TC) in H14 cells; assay type: cell-based; conditions: read-out: Human TC IC50
T1 construct: expressed in transfected cells; host or cells: Baby hamster kidney (BHK) cells, clone H14
T1 sequence (Q12908 1-348): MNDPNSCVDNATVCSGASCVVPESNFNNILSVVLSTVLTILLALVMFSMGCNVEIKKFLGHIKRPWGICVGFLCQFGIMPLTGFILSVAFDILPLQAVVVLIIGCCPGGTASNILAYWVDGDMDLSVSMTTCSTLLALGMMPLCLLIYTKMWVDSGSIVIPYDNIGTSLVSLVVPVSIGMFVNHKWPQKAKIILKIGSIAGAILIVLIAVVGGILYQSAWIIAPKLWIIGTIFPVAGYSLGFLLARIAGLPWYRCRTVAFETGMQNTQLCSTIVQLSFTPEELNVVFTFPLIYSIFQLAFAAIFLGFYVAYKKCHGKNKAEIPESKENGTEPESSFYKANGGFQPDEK
Summary of the method: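 BHK cells stably expressing human IBAT (H14) were incubated 2 h at 37° C with compound and 3 μM final [14C]-taurocholate in DMEM (4.5 g/L glucose) plus 0.2% fatty acid-free BSA. After cold PBS washes, cell-associated radioactivity was measured by scintillation counting.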

Compound	IC50 [nM]
CCCCC1(CCCC)CS(=O)(=O)c2ccc(N3CCN(C)CC3)cc2C(c2ccc(OC)cc2)C1O (stereo not drawn) [Example 1195]	1700
CCCCC1(CCCC)CS(=O)(=O)c2ccc(OC)cc2C(c2cccc([N+](C)(C)C)c2)C1O (stereo not drawn) [Example 1196]	2000
CCCCC1(CC)CS(=O)(=O)c2ccc(N(C)C=O)cc2C(c2ccccc2)C1=O (stereo not drawn) [Example 1197]	2200
CCCCC1(CCCC)CS(=O)(=O)c2ccc(OC)cc2C(c2cc[n+]([O-])cc2)C1O (stereo not drawn) [Example 1198]	2500
CCCCC1(CCCC)CS(=O)(=O)c2ccc(N(C)C)cc2C(c2ccc(OCCOCCOCCOc3ccc(C4c5cc(N(C)C)ccc5S(=O)(=O)CC(CCCC)(CCCC)C4O)cc3)cc2)C1O (stereo not drawn) [Example 1199]	4000
CCCCC1(CCCC)CS(=O)(=O)c2ccc(C)cc2CC1O (stereo not drawn) [Example 1201]	8300
CCCCC1(CCCC)CS(=O)(=O)c2ccc(OC)cc2C(c2ccc([N+](C)(C)C)cc2)C1O (stereo not drawn) [Example 1202]	40000
CCCCC1(CCCC)CS(=O)(=O)c2ccc(OC)cc2C(c2ccc(F)cc2)C1O (stereo not drawn) [Example 1204]	50
CCCCC1(CCCC)CS(=O)(=O)c2ccc(N(C)C)cc2C(c2ccc(OCCOCCOCCI)cc2)C1O (stereo not drawn) [Example 1205]	34
CCCCC1(CCCC)CS(=O)(=O)c2ccc(N(C)C)cc2C(c2cccc(C[N+](CC)(CC)CC)c2)C1O (stereo not drawn) [Example 1206]	35
CCCCC1(CCCC)CS(=O)(=O)c2ccc(N(C)C)cc2C(c2cc(Cl)cc(Cl)c2)C1O (stereo not drawn) [Example 1207]	68
CCCCC1(CCCC)CS(=O)(=O)c2ccc(N(C)C)cc2C(c2ccc(OC)cc2)C1O (stereo not drawn) [Example 1208]	42
CCCCC1(CCCC)CS(=O)(=O)c2ccc(N(C)C)cc2C(c2ccccc2N(C)C)C1O (stereo not drawn) [Example 1210]	140
CCCCC1(CC)CS(=O)(=O)c2ccc(N(C)C=O)cc2C(c2ccccc2)C1O (stereo not drawn) [Example 1214]	750
CCCCC1(CCCC)CS(=O)(=O)c2c(SC)cccc2C(c2ccc(OC)cc2)C1O (stereo not drawn) [Example 1215]	190
CCCCC1(CCCC)CS(=O)(=O)c2ccc(N(C)C)cc2C(c2ccc(C(=O)O)cc2)C1O (stereo not drawn) [Example 1217]	320
CCCCC1(CCCC)CS(=O)(=O)c2c(cccc2S(C)(=O)=O)C(c2ccc(OC)cc2)C1O (stereo not drawn) [Example 1218]	190
CCCCC1(CCCC)CS(=O)(=O)c2ccc(N(C)C)cc2C(c2ccc(OCCN(C)C)cc2)C1O (stereo not drawn) [Example 1219]	340
CCCCC1(CCCC)CS(=O)(=O)c2ccc(NC(C)C)cc2C(c2cccc(OC)c2)C1O (stereo not drawn) [Example 1220]	200
CCCCC1(CCCC)CS(=O)(=O)c2ccc(N(C)C)cc2C(c2ccc(C(=O)OC)cc2)C1O (stereo not drawn) [Example 1221]	41
CCCCC1(CCCC)CS(=O)(=O)c2ccc(NCC)cc2C(c2cccc(OC)c2)C1O (stereo not drawn) [Example 1222]	65
CCCCC1(CCCC)CS(=O)(=O)c2cc(Br)c(NC)cc2C(c2ccccc2)C1O (stereo not drawn) [Example 1223]	280

Compound	IC50 [nM]
CCCCC1(CCCC)CS(=O)(=O)c2ccc(F)cc2C(c2cccc([N+](=O)[O-])c2)C1O (stereo not drawn) [Example 1224]	330
CCCCC1(CCCC)CS(=O)(=O)c2cc(Br)c(N(C)C)cc2C(c2ccc[nH]2)C1O (stereo not drawn) [Example 1228]	38
CCCCC1(CCCC)CS(=O)(=O)c2ccc(N(C)C)cc2C(c2ccc(O)c(Cl)c2)C1O (stereo not drawn) [Example 1229]	49
CCCCC1(CCCC)CS(=O)(=O)c2c(cc(F)cc2N(C)C)C(c2ccccc2)C1O (stereo not drawn) [Example 1230]	62
CCCCC1(CCCC)CS(=O)(=O)c2ccc(N(C)C)cc2C(c2ccc3cc(OC)ccc3c2)C1O (stereo not drawn) [Example 1231]	75
CCCCC1(CCCC)CS(=O)(=O)c2ccc(N(C)C)cc2C(c2cccc(C[N+](C)(C)CCN(C)C)c2)C1O (stereo not drawn) [Example 1233]	150
CCCCC1(CCCC)CS(=O)(=O)c2ccc(N(C)C)cc2C(c2cccc(C[N+](C)(C)C)c2)C1O (stereo not drawn) [Example 1234]	67
CCCCC1(CCCC)CS(=O)(=O)c2ccc(N(C)C)cc2C(c2cccc(OCCN(CC)CC)c2)C1O (stereo not drawn) [Example 1235]	45
CCCCC1(CCCC)CS(=O)(=O)c2ccc(N(C)C)cc2C(c2ccc(CBr)cc2)C1O (stereo not drawn) [Example 1236]	50
CCCCC1(CCCC)CS(=O)(=O)c2ccc(N(C)C)cc2C(c2ccc(OCC[N+](C)(C)CCOCCOCC[N+](C)(C)C)cc2)C1O (stereo not drawn) [Example 1237]	70
C=COCCOCCOCCOc1ccc(C2c3cc(N(C)C)ccc3S(=O)(=O)CC(CCCC)(CCCC)C2O)cc1F (stereo not drawn) [Example 1238]	800
CCCCC1(CCCC)CS(=O)(=O)c2ccc(N(C)C)cc2C(c2ccc(OCCOCCBr)c(F)c2)C1O (stereo not drawn) [Example 1239]	35
CCCCC1(CCCC)CS(=O)(=O)c2ccc(N(C)C)cc2C(c2ccc(OC)c(C)c2)C1O (stereo not drawn) [Example 1240]	16
CCCCC1(CCCC)CS(=O)(=O)c2ccc(N(C)C)cc2C(c2cccc(CN(C)C)c2)C1O (stereo not drawn) [Example 1241]	47
CCCCC1(CCCC)CS(=O)(=O)c2ccc(N(C)C)cc2C(c2ccc(OCCOCCOCCOCCCl)c(F)c2)C1O (stereo not drawn) [Example 1242]	29
CCCCC1(CCCC)CS(=O)(=O)c2ccc(N(C)C)cc2C(c2ccc(O)c(C[N+](C)(C)C)c2)C1O (stereo not drawn) [Example 1243]	630
CCCCC1(CCCC)CS(=O)(=O)c2ccc(N(C)C)cc2C(c2cccc([N+](C)(C)C)c2)C1O (stereo not drawn) [Example 1245]	320
CCCCC1(CCCC)CS(=O)(=O)c2ccc(N(C)C)cc2C(c2cccc(CBr)c2)C1O (stereo not drawn) [Example 1246]	18
CCCCC1(CCCC)CS(=O)(=O)c2ccc(N(C)C)cc2C(c2ccc3cc(O)ccc3c2)C1O (stereo not drawn) [Example 1247]	17
CCCCC1(CCCC)CS(=O)(=O)c2ccc(N(C)C)cc2C(c2ccc(O)c(CN(C)C)c2)C1O (stereo not drawn) [Example 1248]	330
CCCCC1(CCCC)CS(=O)(=O)c2ccc(N(C)C)cc2C(c2ccc(C[N+](C)(C)CCO)cc2)C1O (stereo not drawn) [Example 1249]	10200
CCCCC1(CCCC)CS(=O)(=O)c2ccc(N(C)C)cc2C(c2cccc(N(C)C)c2)C1O (stereo not drawn) [Example 1250]	13

Compound	IC50 [nM]
CCCCC1(CCCC)CS(=O)(=O)c2ccc(N(C)C)cc2C(c2cccc3ccccc23)C1O (stereo not drawn) [Example 1251]	620
CCCCC1(CCCC)CS(=O)(=O)c2ccc(N(C)C)cc2C(c2ccc(OCCC[N+](CC)(CC)CC)cc2)C1O (stereo not drawn) [Example 1252]	29000
CCCCC1(CCCC)CS(=O)(=O)c2ccc(N(C)C)cc2C(c2ccc(OC)c(C[N+](C)(C)C)c2)C1O (stereo not drawn) [Example 1253]	300
CCCCC1(CCCC)CS(=O)(=O)c2ccc(N(C)C)cc2C(c2ccc(C[n+]3ccccc3)cc2)C1O (stereo not drawn) [Example 1254]	850
CCCCC1(CCCC)CS(=O)(=O)c2ccc(N(C)C)cc2C(c2cccc(C[N+](C)(C)CC[N+](C)(C)C)c2)C1O (stereo not drawn) [Example 1255]	690
CCCCC1(CCCC)CS(=O)(=O)c2ccc(N(C)C)cc2C(c2cccc([N+](=O)[O-])c2)C1O (stereo not drawn) [Example 1256]	11
CCCCC1(CCCC)CS(=O)(=O)c2cc(Br)c(N(C)C)cc2C(c2ccccc2)C1O (stereo not drawn) [Example 1257]	100
CCCCC1(CCCC)CS(=O)(=O)c2c(NC(C)(C)C)cccc2C(c2ccc(F)cc2)C1O (stereo not drawn) [Example 1258]	120
CCCCC1(CC)CS(=O)(=O)c2ccc(N(C)C)cc2C(c2cccc(O)c2)C1O (stereo not drawn) [Example 1260]	12
CCCCC1(CCCC)CS(=O)(=O)c2ccc(N(C)C)cc2C(c2cccs2)C1O (stereo not drawn) [Example 1262]	30
CCCCC1(CCCC)CS(=O)(=O)c2ccc(NC(C)C)cc2C(c2ccc(F)cc2)C1O (stereo not drawn) [Example 1264]	210
CCCCC1(CCCC)CS(=O)(=O)c2c(NC(C)C)cccc2C(c2ccc(F)cc2)C1O (stereo not drawn) [Example 1265]	240
CCCCC1(CCCC)CS(=O)(=O)c2ccc(N(C)C)cc2C(c2ccc(OCCCCCCCCCC[N+](CC)(CC)CC)cc2)C1O (stereo not drawn) [Example 1268]	35
CCCCC1(CCCC)CS(=O)(=O)c2ccc(N(C)C)cc2C(c2ccc(OCCCCCCCCCCI)cc2)C1O (stereo not drawn) [Example 1269]	26
CCCCC1(CCCC)CS(=O)(=O)c2ccc(N(C)C)cc2C(c2ccc(OCCCCBr)c(F)c2)C1O (stereo not drawn) [Example 1270]	26
CCCCC1(CCCC)CS(=O)(=O)c2ccc(N(C)C)cc2C(c2cccc(OCCOCCOCC[N+](C)(C)CCN(CC)S(=O)(=O)c3ccccc3)c2)C1O (stereo not drawn) [Example 1271]	11
CCCCC1(CCCC)CS(=O)(=O)c2ccc(N(C)C)cc2C(c2cccc(OCCOCCOCC[n+]3cccc(CC(=O)O)c3)c2)C1O (stereo not drawn) [Example 1272]	47
CCCCCCCCC[N+](CCCCCCCCC)(CCCCCCCCC)CCOCCOCCOc1cccc(C2c3cc(N(C)C)ccc3S(=O)(=O)CC(CCCC)(CCCC)C2O)c1 (stereo not drawn) [Example 1273]	29
CCCCC1(CCCC)CS(=O)(=O)c2ccc(N(C)C)cc2C(c2ccc(OCc3cccc(CCl)n3)c(F)c2)C1O (stereo not drawn) [Example 1274]	28
CCCCC1(CCCC)CS(=O)(=O)c2ccc(N(C)C)cc2C(c2ccc(OCCOCC[N+]3(C)CC[N+](C)(C)CC3)c(F)c2)C1O (stereo not drawn) [Example 1275]	24
CCCCC1(CCCC)CS(=O)(=O)c2ccc(N(C)C)cc2C(c2cccc(OCCOCCOCC[N+](CCCCCCC(C)C)(CCCCCCC(C)C)CCCCCCC(C)C)c2)C1O (stereo not drawn) [Example 1276]	29
CCCCC1(CCCC)CS(=O)(=O)c2ccc(N(C)C)cc2C(c2ccc(OCCOCCN(C)CC(=O)O)c(F)c2)C1O (stereo not drawn) [Example 1277]	18
